Source: ChEMBL document CHEMBL1146722, “Synthesis and antibacterial activity of 6-O-arylpropargyl-9-oxime-11,12-carbamate ketolides” (2004)
Converted amounts (≈) assume the structure as drawn.

Assays:
Type in all cases: functional
[1] = tested on: Haemophilus influenzae; assay: In vitro antibacterial activity against Haemophilus influenzae GYR1435
[2] = tested on: Staphylococcus aureus; assay: In vitro antibacterial activity against Staphylococcus aureus 1775 strain
[3] = tested on: Staphylococcus aureus; assay: In vitro antibacterial activity against Staphylococcus aureus NCTC 10649M strain
[4] = tested on: Streptococcus pneumoniae; assay: In vitro antibacterial activity against Streptococcus pneumoniae 5649
[5] = tested on: Streptococcus pneumoniae; assay: In vitro antibacterial activity against Streptococcus pneumoniae 5979
[6] = tested on: Streptococcus pyogenes; assay: In vitro antibacterial activity against Streptococcus pyogenes 930
[7] = tested on: Streptococcus pyogenes; assay: In vitro antibacterial activity against Streptococcus pyogenes EES61
[8] = tested on: Streptococcus pyogenes; assay: In vitro antibacterial activity against Streptococcus pyogenes PIU 2548
[9] = tested on: Staphylococcus aureus; assay: In vitro antibacterial activity against Staphylococcus aureus A5177 strain
[10] = tested on: Streptococcus pneumoniae; assay: In vitro antibacterial activity against Streptococcus pneumoniae ATCC 6303

SMILES | MIC [1] [µg/mL] | MIC [2] [µg/mL] | MIC [3] [µg/mL] | MIC [4] [µg/mL] | MIC [5] [µg/mL] | MIC [6] [µg/mL] | MIC [7] [µg/mL] | MIC [8] [µg/mL] | MIC [9] [µg/mL] | MIC [10] [µg/mL]
CC[C@H]1OC(=O)[C@H](C)C(=O)[C@H](C)[C@@H](OC2O[C@H](C)C[C@H](N(C)C)[C@H]2O)[C@@](C)(OCC#Cc2ccc3nccnc3c2)C[C@@H](C)/C(=N\OC)[C@H](C)[C@H]2NC(=O)O[C@@]21C (stereo not given in full) | 8 (≈ 10.1 µM) | > 128 | 0.25 (≈ 0.315 µM) | 0.125 (≈ 0.157 µM) | 0.25 (≈ 0.315 µM) | 8 (≈ 10.1 µM) | 0.008 (≈ 0.0101 µM) | 0.5 (≈ 0.63 µM) | 0.008 (≈ 0.0101 µM) | 0.008 (≈ 0.0101 µM)
CC[C@H]1OC(=O)[C@H](C)C(=O)[C@H](C)[C@@H](OC2O[C@H](C)C[C@H](N(C)C)[C@H]2O)[C@@](C)(OCC#Cc2ccc(-c3nnn(C)n3)s2)C[C@@H](C)/C(=N\OC)[C@H](C)[C@H]2NC(=O)O[C@@]21C (stereo not given in full) | 4 (≈ 4.82 µM) | 128 (≈ 154 µM) | 0.25 (≈ 0.301 µM) | 0.06 (≈ 0.0723 µM) | 0.5 (≈ 0.602 µM) | 32 (≈ 38.6 µM) | 0.008 (≈ 0.00964 µM) | 0.125 (≈ 0.151 µM) | 0.008 (≈ 0.00964 µM) | 0.008 (≈ 0.00964 µM)
CC[C@H]1OC(=O)[C@H](C)C(=O)[C@H](C)[C@@H](OC2O[C@H](C)C[C@H](N(C)C)[C@H]2O)[C@@](C)(OCC#Cc2cnc3ccccc3c2)C[C@@H](C)/C(=N\OC)[C@H](C)[C@H]2NC(=O)O[C@@]21C (stereo not given in full) | 4 (≈ 5.04 µM) | 128 (≈ 161 µM) | 1 (≈ 1.26 µM) | 0.125 (≈ 0.158 µM) | 0.25 (≈ 0.315 µM) | 1 (≈ 1.26 µM) | 0.008 (≈ 0.0101 µM) | 0.125 (≈ 0.158 µM) | 0.25 (≈ 0.315 µM) | 0.008 (≈ 0.0101 µM)
CC[C@H]1OC(=O)[C@H](C)C(=O)[C@H](C)[C@@H](OC2O[C@H](C)C[C@H](N(C)C)[C@H]2O)[C@@](C)(OCC#Cc2ccc(-c3ccccn3)s2)C[C@@H](C)/C(=N\OC)[C@H](C)[C@H]2NC(=O)O[C@@]21C (stereo not given in full) | 4 (≈ 4.85 µM) | 64 (≈ 77.6 µM) | 0.25 (≈ 0.303 µM) | 0.008 (≈ 0.0097 µM) | 0.008 (≈ 0.0097 µM) | 16 (≈ 19.4 µM) | 0.008 (≈ 0.0097 µM) | 0.03 (≈ 0.0364 µM) | 0.008 (≈ 0.0097 µM) | 0.008 (≈ 0.0097 µM)
CC[C@H]1OC(=O)[C@H](C)C(=O)[C@H](C)[C@@H](OC2O[C@H](C)C[C@H](N(C)C)[C@H]2O)[C@@](C)(OCC#Cc2cnc3cccnc3c2)C[C@@H](C)/C(=N\OC)[C@H](C)[C@H]2NC(=O)O[C@@]21C (stereo not given in full) | 2 (≈ 2.52 µM) | > 128 | 1 (≈ 1.26 µM) | 0.03 (≈ 0.0378 µM) | 1 (≈ 1.26 µM) | 0.5 (≈ 0.63 µM) | 0.008 (≈ 0.0101 µM) | 0.06 (≈ 0.0756 µM) | 0.008 (≈ 0.0101 µM) | 0.008 (≈ 0.0101 µM)
CC[C@H]1OC(=O)[C@@](C)(F)C(=O)[C@H](C)[C@@H](OC2O[C@H](C)C[C@H](N(C)C)[C@H]2O)[C@@](C)(OCC#Cc2cnc3ccccc3c2)C[C@@H](C)/C(=N\OC)[C@H](C)[C@H]2NC(=O)O[C@@]21C (stereo not given in full) | 4 (≈ 4.93 µM) | 64 (≈ 78.9 µM) | 0.5 (≈ 0.617 µM) | 0.125 (≈ 0.154 µM) | 0.125 (≈ 0.154 µM) | 0.5 (≈ 0.617 µM) | 0.008 (≈ 0.00986 µM) | 0.25 (≈ 0.308 µM) | 0.25 (≈ 0.308 µM) | 0.008 (≈ 0.00986 µM)
CC[C@H]1OC(=O)[C@@](C)(F)C(=O)[C@H](C)[C@@H](OC2O[C@H](C)C[C@H](N(C)C)[C@H]2O)[C@@](C)(OCC#Cc2ccc(-c3nnn(C)n3)s2)C[C@@H](C)/C(=N\OC)[C@H](C)[C@H]2NC(=O)O[C@@]21C (stereo not given in full) | 8 (≈ 9.43 µM) | 64 (≈ 75.5 µM) | 1 (≈ 1.18 µM) | 0.125 (≈ 0.147 µM) | 0.25 (≈ 0.295 µM) | 8 (≈ 9.43 µM) | 0.008 (≈ 0.00943 µM) | 0.5 (≈ 0.59 µM) | 0.25 (≈ 0.295 µM) | 0.008 (≈ 0.00943 µM)
CC[C@H]1OC(=O)[C@H](C)[C@@H](O[C@H]2C[C@@](C)(OC)[C@@H](O)[C@H](C)O2)[C@H](C)[C@@H](O[C@@H]2O[C@H](C)C[C@H](N(C)C)[C@H]2O)[C@](C)(O)C[C@@H](C)C(=O)[C@H](C)[C@@H](O)[C@]1(C)O [ERYTHROMYCIN] | 4 (≈ 5.45 µM) | > 128 | 0.5 (≈ 0.681 µM) | 4 (≈ 5.45 µM) | > 128 | > 128 | 0.015 (≈ 0.0204 µM) | 8 (≈ 10.9 µM) | > 128 | 0.015 (≈ 0.0204 µM)
CC[C@H]1OC(=O)[C@H](C)C(=O)[C@H](C)[C@@H](O[C@@H]2O[C@H](C)C[C@H](N(C)C)[C@H]2O)[C@](C)(OC)C[C@@H](C)C(=O)[C@H](C)[C@H]2N(CCCCn3cnc(-c4cccnc4)c3)C(=O)O[C@]12C [TELITHROMYCIN] | 2 (≈ 2.46 µM) | > 100 | 0.1 (≈ 0.123 µM) | 0.5 (≈ 0.616 µM) | 8 (≈ 9.85 µM) | 8 (≈ 9.85 µM) | 0.004 (≈ 0.00493 µM) | 2 (≈ 2.46 µM) | 0.1 (≈ 0.123 µM) | 0.004 (≈ 0.00493 µM)
